Laboratory results taken from paper PMC6727040, “Identification of a Novel Functional Corticotropin-Releasing Hormone (CRH2) in Chickens and Its Roles in Stimulating Pituitary TSHβ Expression and ACTH Secretion” (Frontiers in Endocrinology, 2019).
“Also recorded” adds a separate entry of the source. Ends that are not written are not given here. Peptide text beside a SMILES is read from it.

Experiments:
chicken pituitary = settings: cited from earlier work
From the text: (§1) The relatively high potency of cCRH2 in activating cCRHR2 led us to examine whether like cCRH, cCRH2 can stimulate TSH expression in the chicken pituitary (Figure 8). […] Our finding raises a new concept that apart from CRH, TRH and GCG-like peptide (GCGL) [which are re ...

CRHR1 and CRHR2 = settings: cited from earlier work
From the text: It has been well-documented that the roles of CRH-related peptides are mediated by two G protein-coupled receptors, namely CRH receptor 1 (CRHR1) and CRH receptor 2 (CRHR2), which share ~68% amino acid identity with each other ([6], [21], [23]). However, these neuropeptides have distinct preference for these two receptors.

chicken CRHR1 (cCRHR1) = molecular target: T1, chicken CRHR1 (cCRHR1) (Gallus gallus, UniProt Q90812); experiment: pGL3-CRE-luciferase reporter assay in CHO cells expressing cCRHR1; format: cell-based; settings: CHO cells transiently expressing cCRHR1; peptide 10^−12-10^−6M, 6 h; luciferase as fold of untreated control; N = 3 replicates
T1 construct: expressed in transfected cells; host or cells: CHO cells, transient transfection (the control used the empty pcDNA3.1(+) vector)
T1 sequence (Q90812 29-420): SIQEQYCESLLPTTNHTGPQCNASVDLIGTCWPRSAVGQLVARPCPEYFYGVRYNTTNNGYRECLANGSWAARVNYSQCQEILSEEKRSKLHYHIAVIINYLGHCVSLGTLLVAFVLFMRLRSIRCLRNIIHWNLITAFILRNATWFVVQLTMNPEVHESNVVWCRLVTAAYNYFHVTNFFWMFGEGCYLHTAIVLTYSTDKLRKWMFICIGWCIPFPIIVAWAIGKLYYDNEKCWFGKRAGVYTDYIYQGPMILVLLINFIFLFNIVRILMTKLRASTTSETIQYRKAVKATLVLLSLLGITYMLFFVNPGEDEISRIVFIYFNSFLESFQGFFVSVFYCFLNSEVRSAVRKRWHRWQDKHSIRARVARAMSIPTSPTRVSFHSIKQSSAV
Description: CHO cells were cultured in Dulbecco's Modified Eagle's Medium (DMEM) supplemented with 10% (vol/vol) fetal bovine serum, 100 U/ml penicillin G, and 100 µg/ml streptomycin (HyClone) in a 100 mm dish (Corning) and incubated at 37°C with 5% CO2. As described in our previous study ([35]), the functionality of cCRH2 was examined in CHO cells transiently expressing CRHR1 or CRHR2 by the pGL3-CRE-luciferase reporter system, which was utilized to monitor receptor-mediated activation of the intracellular cAMP/PKA signaling pathway. The luciferase activities in each treatment group were expressed as relative fold increase as compared with that of respective control groups (i.e., without peptide treatment).

pituitary [1] = settings: cited from earlier work
From the text: as §1

pituitary [2] = settings: cited from earlier work; remark: listed apart in the source
From the text: However, UCN1 expression could not be detected in the hypothalamus and pituitary stalk ([10], [11]), and the selective receptors for UCN2 and UCN3 were not detected in the pituitary ([12]–[14]), hinting that the actions of ...

GCG-like peptide [GCGL]
chicken pituitary TSH expression/secretion (in words) (chicken pituitary): reported to stimulate chicken pituitary TSH expression/secretion

urocortin III (FTLSLDVPTNIMNLLFNIAKAKNLRAQAAANAHLMAQI; ends and bridges not checked; UniProt Q969E3 120-157, looked up) [UCN3, CRH family peptide urocortin III]
affinity/selectivity for CRHR1 and CRHR2 (in words) (CRHR1 and CRHR2): highly selective for CRHR2

urocortin II (IVLSLDVPIGLLQILLEQARARAAREQATTNARILARVGHC; Urocortin-2; UniProt Q96RP3 72-112, looked up) [UCN2, CRH family peptide urocortin II]
affinity/selectivity for CRHR1 and CRHR2 (in words) (CRHR1 and CRHR2): highly selective for CRHR2

CC[C@H](C)[C@H](NC(=O)[C@H](CO)NC(=O)[C@H](CCC(N)=O)NC(=O)[C@H](CC(C)C)NC(=O)[C@H](CC(C)C)NC(=O)[C@H](CC(C)C)NC(=O)[C@H](CCCCN)NC(=O)[C@H](CC(N)=O)NC(=O)[C@H](CO)NC(=O)[C@H](CC(C)C)NC(=O)[C@H](C)NC(=O)[C@H](CCCCN)NC(=O)[C@H](CCC(N)=O)NC(=O)[C@H](C)NC(=O)[C@H](CC(C)C)NC(=O)[C@H](CCCNC(=N)N)NC(=O)[C@H](CCC(=O)O)NC(=O)[C@H](CCC(=O)O)NC(=O)[C@H](CCCNC(=N)N)NC(=O)[C@H](CO)NC(=O)[C@H](CCSC)NC(=O)[C@H](CCC(=O)O)NC(=O)[C@H](CC(C)C)NC(=O)[C@H](Cc1ccccc1)NC(=O)[C@H](CCC(=O)O)NC(=O)[C@H](CCCNC(=N)N)NC(=O)[C@H](CC(C)C)NC(=O)[C@H](CC(C)C)NC(=O)[C@H](Cc1c[nH]cn1)NC(=O)[C@H](Cc1ccccc1)NC(=O)[C@@H](NC(=O)[C@H](CC(C)C)NC(=O)[C@H](CC(=O)O)NC(=O)[C@H](CC(C)C)NC(=O)[C@H](CO)NC(=O)[C@H](CC(N)=O)NC(=O)[C@@H]1CCCN1C(=O)[C@H](CCCCN)NC(=O)CNC(=O)[C@@H](N)CCC(=O)O)[C@@H](C)O)C(N)=O [cCRH2] (H-EGKPNSLDLTFHLLREFLEMSREERLAQKALSNKLLLQSI-NH2)
EC50 (chicken CRHR1 (cCRHR1)): 0.0286 µM

CC[C@H](C)[C@H](NC(=O)[C@@H](NC(=O)[C@H](CCC(=O)O)NC(=O)[C@H](CCSC)NC(=O)[C@H](CC(C)C)NC(=O)[C@H](CCCCN)NC(=O)[C@H](CCCNC(=N)N)NC(=O)[C@H](CC(N)=O)NC(=O)[C@H](CO)NC(=O)[C@H](Cc1c[nH]cn1)NC(=O)[C@H](C)NC(=O)[C@H](CCC(N)=O)NC(=O)[C@H](CCC(N)=O)NC(=O)[C@H](C)NC(=O)[C@H](CC(C)C)NC(=O)[C@H](CCC(N)=O)NC(=O)[C@H](CCC(=O)O)NC(=O)[C@H](C)NC(=O)[C@H](CCCNC(=N)N)NC(=O)[C@H](C)NC(=O)[C@H](CCSC)NC(=O)[C@H](CCC(=O)O)NC(=O)[C@H](CC(C)C)NC(=O)[C@@H](NC(=O)[C@H](CCC(=O)O)NC(=O)[C@H](CCCNC(=N)N)NC(=O)[C@H](CC(C)C)NC(=O)[C@H](CC(C)C)NC(=O)[C@H](Cc1c[nH]cn1)NC(=O)[C@H](Cc1ccccc1)NC(=O)[C@@H](NC(=O)[C@H](CC(C)C)NC(=O)[C@H](CC(=O)O)NC(=O)[C@H](CC(C)C)NC(=O)[C@H](CO)NC(=O)[C@@H](NC(=O)[C@@H]1CCCN1C(=O)[C@@H]1CCCN1C(=O)[C@H](CCC(=O)O)NC(=O)[C@H](CCC(=O)O)NC(=O)[C@@H](N)CO)[C@@H](C)CC)[C@@H](C)O)C(C)C)[C@@H](C)CC)C(N)=O [cCRH]
EC50 (chicken CRHR1 (cCRHR1)): 0.0003 µM

corticotropin-releasing hormone [CRH]
pituitary TSH secretion and/or expression (in words) (pituitary [1]; non-mammalian vertebrates, including birds, amphibians and reptiles): elevate pituitary thyroid stimulating hormone (TSH) secretion and/or expression
pituitary TSH secretion and synthesis (in words) (pituitary [1]; some non-mammalian vertebrates including chickens): responsible for stimulating pituitary TSH secretion and synthesis
ACTH secretion and synthesis from the pituitary (in words) (pituitary [2]): stimulates adrenocorticotropic hormone (ACTH) secretion and synthesis from the pituitary
activation of both CRH receptors in chickens (in words) (CRHR1 and CRHR2): equipotent activation of both receptors; also recorded: equipotent in activating both receptors
affinity for CRHR1 versus CRHR2 (in words) (CRHR1 and CRHR2; mammals, Xenopus and zebrafish): higher affinity to CRHR1 than to CRHR2

urocortin I (DNPSLSIDLTFHLLRTLLELARTQSQRERAEQNRIIFDSV; ends and bridges not checked; UniProt P55089 83-122, looked up) [UCN1, CRH family peptide urocortin I]
ACTH-releasing activity in vitro (in words) (pituitary [2]; in vitro): potent ACTH-releasing activity in vitro
affinity/selectivity for CRHR1 and CRHR2 (in words) (CRHR1 and CRHR2): binds to them with similar affinities
